Results as given in patent US20250283872A1, “EXPRESSION SYSTEMS FOR THE ALPHA2ALPHA5BETA2 NICOTINIC ACETYLCHOLINE RECEPTOR AND METHODS OF USE THEREOF” (Janssen Pharmaceutica NV, priority 2021, published 2025).

Experiments:
α2α5β2 nAChR = α2α5β2 nAChR (Homo sapiens, UniProt P17787+P30532+Q15822)
Protocol: (§1) Then transfer the plate to 30° C. with 5% CO2 in a humidified atmosphere for 24-48 hours.

α2β2 nAChR = α2β2 nAChR (Homo sapiens, UniProt P17787+Q15822); details: HEK293T cells; co-transfection with FAM163B or TMIE (plus SAT1+CHAT) versus SAT1+CHAT
Protocol: as §1

α2α5β2 nAChR, sequence (Q15822 27-529): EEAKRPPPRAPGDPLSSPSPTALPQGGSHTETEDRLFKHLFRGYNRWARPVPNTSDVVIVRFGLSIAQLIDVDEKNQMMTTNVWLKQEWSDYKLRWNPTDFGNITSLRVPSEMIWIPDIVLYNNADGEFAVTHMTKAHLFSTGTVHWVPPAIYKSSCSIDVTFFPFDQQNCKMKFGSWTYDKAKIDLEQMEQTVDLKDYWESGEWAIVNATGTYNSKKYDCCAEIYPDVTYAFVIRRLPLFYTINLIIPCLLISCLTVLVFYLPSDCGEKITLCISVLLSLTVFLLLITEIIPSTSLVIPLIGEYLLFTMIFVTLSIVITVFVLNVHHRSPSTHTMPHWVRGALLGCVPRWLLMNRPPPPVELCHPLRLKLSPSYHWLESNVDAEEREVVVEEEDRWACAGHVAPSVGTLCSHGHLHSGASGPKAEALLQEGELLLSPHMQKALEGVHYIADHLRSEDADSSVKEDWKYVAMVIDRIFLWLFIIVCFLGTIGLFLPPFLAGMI
α2α5β2 nAChR, sequence (P30532 23-468): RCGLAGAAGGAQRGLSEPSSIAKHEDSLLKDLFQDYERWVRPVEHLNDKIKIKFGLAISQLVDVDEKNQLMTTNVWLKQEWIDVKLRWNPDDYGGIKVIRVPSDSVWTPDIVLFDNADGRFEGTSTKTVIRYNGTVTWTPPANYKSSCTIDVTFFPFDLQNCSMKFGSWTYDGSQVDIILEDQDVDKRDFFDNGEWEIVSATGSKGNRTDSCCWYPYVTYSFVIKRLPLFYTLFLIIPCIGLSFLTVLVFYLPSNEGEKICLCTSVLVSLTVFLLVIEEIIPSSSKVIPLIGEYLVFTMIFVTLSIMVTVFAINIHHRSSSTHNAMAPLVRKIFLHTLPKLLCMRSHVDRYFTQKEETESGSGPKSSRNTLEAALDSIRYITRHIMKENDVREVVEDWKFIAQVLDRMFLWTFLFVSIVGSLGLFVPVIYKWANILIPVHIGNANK
α2α5β2 nAChR, sequence (P17787 26-502): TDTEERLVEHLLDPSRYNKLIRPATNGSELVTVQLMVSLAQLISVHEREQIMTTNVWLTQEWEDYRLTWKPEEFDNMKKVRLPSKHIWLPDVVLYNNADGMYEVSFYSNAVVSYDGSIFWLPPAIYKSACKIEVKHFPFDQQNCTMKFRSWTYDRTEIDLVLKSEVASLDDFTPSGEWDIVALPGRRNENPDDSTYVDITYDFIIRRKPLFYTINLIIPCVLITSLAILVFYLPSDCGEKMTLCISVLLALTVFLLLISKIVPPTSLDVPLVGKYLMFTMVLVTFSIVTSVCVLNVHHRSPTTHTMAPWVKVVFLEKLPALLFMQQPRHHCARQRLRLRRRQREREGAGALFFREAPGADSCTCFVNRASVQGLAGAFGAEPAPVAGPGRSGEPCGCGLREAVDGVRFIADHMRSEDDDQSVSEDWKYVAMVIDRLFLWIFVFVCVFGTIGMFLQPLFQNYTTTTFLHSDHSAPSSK
α2β2 nAChR, sequence (Q15822 27-529): as the sequence (Q15822 27-529) above
α2β2 nAChR, sequence (P17787 26-502): as the sequence (P17787 26-502) above

CN1CCCC1c1cccnc1 (stereo not drawn) [nicotine, Nicotine]
nicotine potency (nicotine-evoked calcium flux, FIG. 2) (α2α5β2 nAChR; HEK293T cells, co-transfection with FAM163B or TMIE (plus SAT1+CHAT) versus SAT1+CHAT): left shifted | EC80 (nicotine-evoked α2α5β2 nAChR mediated calcium flux) (α2α5β2 nAChR; recombinant cells, Ca5 dye, FLIPR TETRA): 1000 nM | nicotine potency (nicotine-evoked calcium flux, FIG. 2) (α2β2 nAChR): left shifted
